The text below walks through data of patent US10072021B2, “Compound for inhibiting binding between DX2 protein and P14/ARF protein, and pharmaceutical composition for treating or preventing cancer disease containing same as effective ingredient” (PUSAN NATIONAL UNIVERSITY INDUSTRY-UNIVERSITY COOPERATION …, priority 2014, dated 2018).

One data set addresses T1, DX2-p14/ARF binding (Homo sapiens, UniProt Q13155).
T1 construct: made in house; host or cells: E. coli BL21(DE3) for GST-p14/ARF; DX2 from 'cell lysate or recombinant protein'
T1 sequence (Q13155 1-251 isoform Q13155-2): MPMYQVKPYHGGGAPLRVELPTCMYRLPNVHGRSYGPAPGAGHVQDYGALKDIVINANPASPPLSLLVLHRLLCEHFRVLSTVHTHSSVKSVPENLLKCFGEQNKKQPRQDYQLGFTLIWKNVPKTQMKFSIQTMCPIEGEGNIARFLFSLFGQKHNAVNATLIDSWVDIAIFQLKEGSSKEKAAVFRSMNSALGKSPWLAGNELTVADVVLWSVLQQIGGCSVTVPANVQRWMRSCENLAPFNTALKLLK
The experiment in a line: GST pull-down assay of DX2-p14/ARF binding. Conditions: FIG. 2A, 3A, 3D, 3E. The source says:
(§1) Through GST pull-down assays, more specific binding inhibitors were selected among the previously screened candidate drugs as DX2-p14/ARF binding inhibitors. That is, a p14/ARF fragment (full-length) was ligated into EcoRI and Hind II sites of pGEX-TEV vector, which is a modified vector by adding a TEV protease cleavage site to pGEX-4T1. The recombinant proteins were then expressed in E. coli strain BL21(DE3) as GST-fusion proteins. The proteins were purified by glutathione affinity chromatography.
(§2) To address direct binding between the two proteins, agarose-bead conjugated GST (negative control) or GST-target protein was incubated with cell lysate or recombinant protein in radioimmunoprecipitation assay (RIPA) buffer (NaCl, 25 mM Tris-Cl, 1% NP-40, 1% sodium deoxycholate, 0.1% SDS, protease inhibitor mixture) for 1 hour at a temperature of 4° C. for a reaction.

A further data set concerns the target T2, p53-p14/ARF interaction (Homo sapiens, UniProt P04637+Q8N726).
T2 construct: a p14/ARF fragment (full-length) was ligated into EcoRI and Hind II sites of pGEX-TEV vector; made in house; host or cells: E. coli BL21(DE3) for GST-p14/ARF
The experiment in a line: GST pull-down assay, selectivity: p53-p14/ARF interaction. The settings on record: FIG. 3D, 3E. In kind it is binding.
Excerpt: as §1, §2

Data set [1] deals with H128 cells (SCLC cell line). As to the kind of experiment: MTT viability of H128 cells. In kind it is cell-based, human. Conditions: MTT assay, FIG. 7. How it is done:
By MTT assay, anticancer effects were confirmed based on viability of tumor cells. That is, cells were incubated in 0.5 mg/ml of MTT solution for 4 hours at a temperature of 37° C. for a reaction, and then, formazen products formed therefrom were dissolved in dimethyl sulfoxide (DMSO). Then, absorbance thereof was measured at 540 nm by using a spectrometer.
For orientation: Formazan colour is commonly taken as a measure of viable cells.

In another data set the test system is H446 xenograft. The method, then:
DK (5 month-old, N=6) mice were administered with carrier, SLCB050 (5 or 10 mg/kg), Adriamycin (1, 2.5, or 5 mg/kg), and a combination of SLCB050 and Adriamycin by intraperitoneal (i.p.) injection. After termination of the experiment of each group, mice were dissected and isolated lung tissues. For xenograft, 1×10^7 H446 cells (ATCC) were seeded in nude ice. After 4 weeks, tumor bearing mice were injected with Adriamycin, […], or a combination thereof for 6 weeks. Every weeks, tumor volume and body weight were measured.

The subject of a further data set is lung tumors of DK mice. As to the kind of experiment: In vivo anticancer effect in DK mice (lung tumors). Conditions: DK mice, non-toxic dose of Adriamycin, FIG. 10B. The method, then: All experimental procedures using laboratory animals were approved by the animal care committee of Pusan National University. DX2 (C57/BL6) and K-RasLA2 (C57/BL6) mice were obtained from Dr. Kim, Sung-Hoon and Professor. Choi, Kang-Ryeol (Yonsei University), respectively, and double Tg mice were obtained by cross-breeding of DX2 and K-RasLA2 mice. Before experiment, all mice were maintained under temperature- and light-controlled conditions (20-23° C., 12 h/12 h light/dark cycle), and provided autoclaved food and water.
Every weeks, tumor volume and body weight were measured.
After dissection of mice, tissues were fixed using 10% formalin (in PBS) for 24 hours, and embedded in paraffin blocks according to a basic tissue processing procedure. For histological analysis, embedded tissues were cut for […] by Leica microtome (Wetzlar, Germany) and transferred onto adhesive-coated slides (Marienfeld laboratory glassware, Germany). After deparaffin and rehydration, sections were then stained with H&E for routine examination.
For IHC staining, rehydrated tissue sections were incubated with antibodies to Ki-67 (Abcam, ab15580), pan-keratin (Sigma, C2931), pro-surfactant C (Millipore, AB3786), NSE (DAKO, IS612), and HER2/Neu (DAKO, A0458) for a reaction. Antigen retrieval was performed using 10 mM sodium citrate (pH 6.0) twice at a temperature of 95° C. for 10 minutes each, and endogenous peroxidase activity was blocked with 3% […] for 10 min. Then, the slides were dehydrated following a standard procedure and sealed with cover glass using mounting solution. TUNEL reaction was done as described in the manual for In Situ Cell Death Detection Kit, POD (Hoffmann-La Roche Ltd, Basel, Swizerland).
To evaluate tumor incidence, lung tissues of each mouse was fixed and embedded in paraffin. 5 sections from each mouse were examined by 3 independent investigator, who counted tumor. In addition, tumor area was calculated by tumor occupied area in total lung area using photoshop software.

T2 sequence (Q8N726 whole entry, the tested form may be a part): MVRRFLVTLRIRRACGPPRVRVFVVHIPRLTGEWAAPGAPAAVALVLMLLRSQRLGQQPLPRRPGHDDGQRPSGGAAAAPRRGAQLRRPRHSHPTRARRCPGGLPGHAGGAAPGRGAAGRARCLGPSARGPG
T2 sequence (P04637 whole entry, the tested form may be a part): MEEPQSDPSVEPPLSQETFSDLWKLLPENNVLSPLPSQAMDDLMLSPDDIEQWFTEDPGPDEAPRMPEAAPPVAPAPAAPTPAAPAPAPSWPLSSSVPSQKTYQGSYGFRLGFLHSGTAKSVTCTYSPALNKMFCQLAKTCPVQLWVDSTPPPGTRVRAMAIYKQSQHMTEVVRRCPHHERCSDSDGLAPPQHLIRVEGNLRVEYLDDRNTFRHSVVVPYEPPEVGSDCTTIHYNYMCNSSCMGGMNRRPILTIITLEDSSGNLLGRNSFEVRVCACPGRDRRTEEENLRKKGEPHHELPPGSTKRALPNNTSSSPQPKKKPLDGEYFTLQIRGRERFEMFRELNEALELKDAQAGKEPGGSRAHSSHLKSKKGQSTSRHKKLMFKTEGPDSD

Take `CC1(C)Oc2cc3oc(=O)ccc3cc2C[C@H]1OC(=O)N/C=C/c1ccco1` [HJH141204, (7R)-(−)-2-(Furan-2-yl)vinylcarbamic Acid, 8,8-dimethyl-2-oxo-6,7-dihydro-2H,8H-pyrano[3,2-g]chromen-7-yl-ester]: the “inhibitory effect on DX2-p14/ARF binding” value on DX2-p14/ARF binding is reported as “showed inhibitory effects on DX2-p14/ARF binding”. Further, the “effect on interaction of p53-p14/ARF” value on p53-p14/ARF interaction was “did not affect the interaction of p53-p14/ARF”. Besides, the “viability of H128 cells” value in data set [1] was “reduced the viability of H128 cells in a dose-dependent manner”.

As to `COc1cc(/C=C/C(=O)O[C@H]2Cc3cc4ccc(=O)oc4cc3OC2(C)C)ccc1O` [SLCB36, reference compound], the “inhibitory effect on DX2-p14/ARF binding” value at DX2-p14/ARF binding is reported as “did not show inhibitory effect on both binding”. The “effect on interaction of p53-p14/ARF” value on p53-p14/ARF interaction is given as “did not show inhibitory effect on both binding”. Also, the “viability of H128 cells” value in data set [1] is on record as “did not significantly affect the cell viability”.

Regarding `COc1cccc2c1C(=O)c1c(O)c3c(c(O)c1C2=O)C[C@@](O)(C(=O)CO)C[C@@H]3O[C@H]1C[C@H](N)[C@H](O)[C@H](C)O1` [Adriamycin, reference compound], the “toxicity, Adriamycin alone” value with H446 xenograft (Adriamycin 5 mg/kg, three times/week) is “evoked rapid weight loss and death”. The “tumor growth, Adriamycin alone” value in the data set with H446 xenograft (Adriamycin 5 mg/kg, three times/week, FIG. 9B) is given as “tumor growth was suppressed within 4 weeks”. For the same compound, in the data set with H446 xenograft (single agents, FIG. 9A), the “response of H446 xenograft model” value was “resistant”. The “anticancer effect, Adriamycin alone” value with lung tumors of DK mice is “did not show anticancer effect”.

As usually defined, the melting point is the temperature of the solid-liquid transition. `CC1(C)Oc2cc3oc(=O)ccc3cc2C[C@@H]1OC(=O)N/C=C/c1ccco1` [HJH141206, (7S)-(+)-2-(Furan-2-yl)vinylcarbamic acid, 8,8-dimethyl-2-oxo-6,7-dihydro-2H, 8H-pyrano[3,2-g]chromen-7-yl-ester] displayed a melting point of 58.5 °C. The “inhibitory effect on DX2-p14/ARF binding” value on DX2-p14/ARF binding is given as “showed inhibitory effects on DX2-p14/ARF binding”. For the same compound, the “effect on interaction of p53-p14/ARF” value on p53-p14/ARF interaction was “did not affect the interaction of p53-p14/ARF”. Also, the “viability of H128 cells” value in data set [1] is “reduced the viability of H128 cells in a dose-dependent manner”.
